The target in one assay is T1, HLA-A2 molecule (Homo sapiens, UniProt P04439, D140Y/D185E/D98H/E176V/E277Q/G131W/G231S/I119V/I121R/I166T/I218V/L300P/L318F/N151K/N90K/P208A/P217A/Q86G/Q94H/R138H/R169H/T345S).
T1 construct: endogenous in cells; host or cells: T2 cell line (TAP1/TAP2-deficient)
Kind of assay: T2 binding assay. To be noted: for FI0.5 (peptide concentration that increases HLA-A2.1 expression by 50% over no peptide control): BB7.2 staining, flow cytometry, triplicate; for HLA-A2 binder class in words: T2 binding assay; for FI0.5 lower (higher affinity) than that of the POTE 252 peptide: ratio to wild type POTE 252. On the procedure:
Peptide binding capacity to the HLA-A2 molecule was measured by using the T2 cell line according to a protocol described previously, [22]. T2 cells (3 × 10^5 cells/well) were incubated overnight in 96-well plates with culture medium (1∶1 mixture of RPMI 1640/Eagle-Hank’s amino acid containing 2.5% fetal bovine serum, 100 U/ml penicillin, and 100 µg/ml streptomycin) with 10 µg/ml β2-microglobulin (Sigma) and different titrated concentrations of peptides (starting from 100 µM with 2-fold serial dilution) as shown in the figures to determine the concentration giving a 50% increase in binding (see below). Cells were washed once with cold HBSS containing 0.1% BSA and incubated for 30 min at 4°C with anti-HLA-A2.1 monoclonal antibody (clone BB7.2) (1∶40 dilution from hybridoma supernatant). After washing, cells were stained with FITC-labeled goat anti-mouse immunoglobulin (BD, San Jose, CA), and the level of HLA expression was measured by flow cytometry. HLA-A2 expression was quantified as fluorescence index (FI) according to the following formula: FI = (geometric mean fluorescence intensity with peptide - geometric mean fluorescence intensity without peptide)/geometric mean fluorescence intensity without peptide. Background fluorescence without BB7.2 was subtracted for each individual value. To compare the different peptides, FI0.5, the peptide concentration that increases HLA-A2.1 expression by 50% over no peptide control background, was calculated from the titration curve for each peptide. It should be noted that the FI0.5 provides a relative measure of peptide affinity or potency among peptides compared side by side, but cannot be taken as a thermodynamic affinity.

The subject of assay [1] is C1R.AAD cells pulsed with peptides. Kind of assay: 4-h 51Cr release CTL assay on peptide-pulsed targets after one week in vitro stimulation. In kind it is cell-based, human. To be noted: CTLs from immunized AAD mice after one week in vitro stimulation with cognate peptide (1.0 µM), targets pulsed with 1.0 µM peptide. The text has this: (§1) Cytokines were purchased from Peprotech (Rocky Hill, NJ). […] For all experiments, groups of three mice were used.

The subject of a further assay is AAD transgenic mice. Kind of assay: Ex vivo interferon-γ ELISPOT assay after peptide immunization. Format: in vivo, mouse. To be noted: for IFN-γ response (ELISPOT) after stimulation with the immunizing peptide: AAD mice immunized s.c. with 50 nmol peptide, boosted at 2 weeks, pooled splenocytes of 3 mice, targets pulsed with 1.0 µM (1000 nM) peptide; for cross-reactive IFN-γ response (ELISPOT) to wild type peptide: AAD mice immunized with enhanced peptide, stimulation with wild type peptide. On the procedure:
as §1
The numbers of IFN-γ secreting cells were determined by an ELISPOT kit (Mouse IFN-gamma ELISpot SixPak; R&D, Minneapolis, […]) or by a set of anti-mouse IFN-γ coating (AN18) and detecting (R4–6A2) monoclonal antibodies (Mabtech) according to the manufacturer’s instructions. Two weeks after the last immunization, spleen cells were plated on antibody-coated plates at 200,000, 100,000 and 50.000 cells/well and stimulated with 200,000 peptide-pulsed naïve spleen cells/well with indicated concentration of peptides for 2 hours. After incubation overnight at 37°C, the plates were washed and detecting antibody was added. An ELISPOT blue color module (R&D) was used for color development. The spots were read by an ELISPOT reader (AID). All samples were analyzed in triplicate.

A further assay has as its system HHD-2 mice. Kind of assay: HLA-A2/peptide tetramer staining and TCR Vβ repertoire of CD8+ T cells. Format: in vivo, mouse. To be noted: HHD-2 mice immunized with the peptide; for tetramer-positive CD8+ T cells: HLA-A2/peptide tetramer staining, Figure 2C.
Description: as §1
Tetrameric MHC class I/peptide complexes obtained from the NIH Tetramer Facility were synthesized as described previously, [25]. Briefly, purified single-chain HLA-A2 molecules were synthesized by a prokaryotic expression system (pET; R&D Systems, Minneapolis, MN). The heavy chain was modified containing the Bir-A enzymatic biotinylation site. Single-chain heavy chain-β2-microglobulin and peptide were refolded by dilution into a redoxshuffling buffer system. The refolded product was biotinylated by Bir-A in the presence of […] (Avidity, Denver, CO). Streptavidin-Phycoerythrin conjugate (Jackson ImmunoResearch, West Grove, PA) was added in a 1∶4 molar ratio. Per-CP labeled anti-mouse CD8 antibody (BD Pharmingen) and TCR Vβ screening panel (BD Pharmingen) were used to detect the TCR repertoire of the CTLs.

Setting [2] is: wild type and substituted peptides, Figure 1B-D, T2 cells overnight with peptide and 10 µg/ml β2-microglobulin.
[3] abbreviates: predicted wild type peptides, Figure 1A, T2 cells overnight with peptide (from 100 µM, 2-fold dilutions) and 10 µg/ml β2-microglobulin.

The values that follow come from publication PMC3672105, “Identification and Enhancement of HLA-A2.1-Restricted CTL Epitopes in a New Human Cancer Antigen-POTE” (PLoS ONE, 2013).

Consider LLLEQNADV [POTE 323-7A], for which the “FI0.5 (peptide concentration that increases HLA-A2.1 expression by 50% over no peptide control)” value at HLA-A2 molecule (setting [2]) is on record as 2.78 µM.
For KLMAKALLL [POTE 252–260], the “CTL lysis of peptide-pulsed target cells” value in assay [1] is reported as “lysed target cells pulsed with the wild type POTE 252 as well as POTE 252-9V”. Further, at HLA-A2 molecule (Figure 1A), the “HLA-A2 binder class in words” value is given as “intermediate binders”. Besides, the “FI0.5 (peptide concentration that increases HLA-A2.1 expression by 50% over no peptide control)” value on HLA-A2 molecule (setting [3]) is given as 1.6 µM. Moreover, the “IFN-γ response (ELISPOT) after stimulation with the immunizing peptide” value (from here on “IFN-γ response … with the immunizing peptide”) in the assay on AAD transgenic mice was “induced a significant number of IFN-γ spots”. The “tetramer-positive CD8+ T cells” value in the assay with HHD-2 mice is listed as 9.3%.
As to KLAAKALLL [POTE 252-3A], the “FI0.5 (peptide concentration that increases HLA-A2.1 expression by 50% over no peptide control)” value at HLA-A2 molecule (setting [2]) worked out at 16.9 µM.
Still for that read-out and setting: the figure for KILEEIASV [POTE-553-7A] is 0.2 µM.
YILEEIESV [POTE 553-1Y]: the “CTL lysis of peptide-pulsed target cells” value in assay [1] was “lysed target cells pulsed with not only POTE 553-1Y, but also POTE 553 and POTE 553-2L peptides”. Moreover, the “FI0.5 (peptide concentration that increases HLA-A2.1 expression by 50% over no peptide control)” value on HLA-A2 molecule (setting [2]) is on record as 0.024 µM. In addition, in the assay on AAD transgenic mice, the “IFN-γ response … with the immunizing peptide” value is reported as “induced some level of IFN-γ responses only after stimulation with the same peptide” and the “cross-reactive IFN-γ response (ELISPOT) to wild type peptide” value (shortened to “cross-reactive IFN-γ response (ELISPOT)”) is on record as “no cross-reactive response to wild type peptide was detected”.
Regarding LLLEQNVDV [POTE 323–331], in assay [1], the “CTL lysis of peptide-pulsed target cells” value is on record as “failed to lyse target cells pulsed with POTE 323”. In addition, the “HLA-A2 binder class in words” value at HLA-A2 molecule (Figure 1A) was “strongest binding affinity”. The “FI0.5 (peptide concentration that increases HLA-A2.1 expression by 50% over no peptide control)” value at HLA-A2 molecule (setting [3]) was 0.8 µM. Further, in the assay on AAD transgenic mice, the “IFN-γ response … with the immunizing peptide” value was “only marginal IFN-γ responses”. Also, the “IFN-γ response over background level (ELISPOT)” value in the assay on AAD transgenic mice (AAD mice immunized with 50 nmol peptide, targets pulsed with 1000 nM peptide) is “less than 2 fold”.
Consider LLFEQNVDV [POTE 323-3F], for which, in assay [1], the “CTL lysis of peptide-pulsed target cells” value is reported as “lysed target cells pulsed with the POTE 323-3F, as well as wild type POTE 323”. In addition, at HLA-A2 molecule (ratio to wild type POTE 323), the “FI0.5 better than the wild type peptide” value is recorded as “approximately 3 fold”. In addition, at HLA-A2 molecule (setting [2]), the “FI0.5 (peptide concentration that increases HLA-A2.1 expression by 50% over no peptide control)” value was found to be 0.09 µM. In the assay on AAD transgenic mice, the “IFN-γ response … with the immunizing peptide” value was “induced significant IFN-γ spots” and the “cross-reactive IFN-γ response (ELISPOT)” value is “some degree of IFN-γ response was also detected”.
In the case of KLMAKAALL [POTE 252-7A], the “FI0.5 (peptide concentration that increases HLA-A2.1 expression by 50% over no peptide control)” value on HLA-A2 molecule (setting [2]) was 4 µM.
The same measure, in the same setting: the figure for YLLEQNVDV [POTE 323-1Y] is 0.25 µM.
Regarding YLMAKALLL [POTE 252-1Y], the “FI0.5 lower (higher affinity) than that of the POTE 252 peptide” value on HLA-A2 molecule is approximately 2 fold. In addition, the “FI0.5 (peptide concentration that increases HLA-A2.1 expression by 50% over no peptide control)” value on HLA-A2 molecule (setting [2]) is 0.9 µM. Besides, the “IFN-γ response … with the immunizing peptide” value with AAD transgenic mice is recorded as “no significant IFN-γ responses were detected”.
For KILEEIESV [POTE 553–561], the “CTL lysis of peptide-pulsed target cells” value in assay [1] is listed as “not any significant detectable target cell lysis”. In addition, at HLA-A2 molecule (Figure 1A), the “HLA-A2 binder class in words” value is “intermediate binders”. Further, at HLA-A2 molecule (setting [3]), the “FI0.5 (peptide concentration that increases HLA-A2.1 expression by 50% over no peptide control)” value is 5.6 µM. The “IFN-γ response … with the immunizing peptide” value with AAD transgenic mice is recorded as “did not induce any significant IFN-γ responses”.
Turning to GLTPLLLGV [POTE 272–280], the “CTL lysis of peptide-pulsed target cells” value in assay [1] is “lysed target cells pulsed with POTE 272”. Moreover, the “HLA-A2 binder class in words” value at HLA-A2 molecule (Figure 1A) is “strongest binding affinity”. The “FI0.5 (peptide concentration that increases HLA-A2.1 expression by 50% over no peptide control)” value on HLA-A2 molecule (setting [3]) is recorded as 0.9 µM. Also, the “IFN-γ response … with the immunizing peptide” value in the assay on AAD transgenic mice is “induced significant IFN-γ responses”.
Turning to LLAEQNVDV [POTE 323-3A], the “FI0.5 (peptide concentration that increases HLA-A2.1 expression by 50% over no peptide control)” value on HLA-A2 molecule (setting [2]) was found to be 0.4 µM.
On to KLLEEIESV [POTE 553-2L], for which the “CTL lysis of peptide-pulsed target cells” value in assay [1] is listed as “did not lyse target cells pulsed with POTE 553-2L”. In addition, the “FI0.5 (peptide concentration that increases HLA-A2.1 expression by 50% over no peptide control)” value on HLA-A2 molecule (setting [2]) worked out at 0.1 µM. In the assay with AAD transgenic mice, the “IFN-γ response … with the immunizing peptide” value is reported as “induced some level of IFN-γ responses only after stimulation with the same peptide” and the “cross-reactive IFN-γ response (ELISPOT)” value is given as “no cross-reactive response to wild type peptide was detected”.
With KLMAKALLV [POTE 252-9V], in assay [1], the “CTL lysis of peptide-pulsed target cells” value is reported as “lysed target cells pulsed with the wild type POTE 252 as well as POTE 252-9V”. For the same sequence, the “FI0.5 lower (higher affinity) than that of the POTE 252 peptide” value at HLA-A2 molecule is reported as approximately 2 fold. For the same sequence, the “FI0.5 (peptide concentration that increases HLA-A2.1 expression by 50% over no peptide control)” value at HLA-A2 molecule (setting [2]) was found to be 0.8 µM. Further, in the assay with AAD transgenic mice, the “IFN-γ response … with the immunizing peptide” value was “induced a significant number of IFN-γ spots”; the “cross-reactive IFN-γ response (ELISPOT)” value was “cross-reactivity to both POTE 252 and POTE 252-9V”. Besides, the “tetramer-positive CD8+ T cells” value in the assay on HHD-2 mice is 6.8%. Further, the “CD8+tetramer+ T cells positive for Vβ10” value in the assay on HHD-2 mice (TCR Vβ screening panel, Figure 2D) is recorded as “about 80%”.
